According to patent US20070167353A1, “PRODRUG COMPOSITION” (priority 2003, published 2007):
Like-named read-outs stand apart in the source and are kept apart here.

Tests used:
[1] = molecular target: T1, biphenyl hydrolase-like enzyme (BPHL) (Homo sapiens, UniProt Q86WA6); format: biochemical
T1 sequence (Q86WA6 38-291): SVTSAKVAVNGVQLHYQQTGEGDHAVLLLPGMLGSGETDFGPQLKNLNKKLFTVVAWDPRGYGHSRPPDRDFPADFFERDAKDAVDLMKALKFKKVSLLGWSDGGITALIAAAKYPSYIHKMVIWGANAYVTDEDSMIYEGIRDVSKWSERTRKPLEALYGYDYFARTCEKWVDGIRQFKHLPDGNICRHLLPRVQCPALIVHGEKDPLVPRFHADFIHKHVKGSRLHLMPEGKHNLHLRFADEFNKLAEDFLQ

[2] = molecular target: T2, HPEPT1 (Homo sapiens, UniProt P46059); conditions: human, pH 6
T2 sequence (P46059 1-708): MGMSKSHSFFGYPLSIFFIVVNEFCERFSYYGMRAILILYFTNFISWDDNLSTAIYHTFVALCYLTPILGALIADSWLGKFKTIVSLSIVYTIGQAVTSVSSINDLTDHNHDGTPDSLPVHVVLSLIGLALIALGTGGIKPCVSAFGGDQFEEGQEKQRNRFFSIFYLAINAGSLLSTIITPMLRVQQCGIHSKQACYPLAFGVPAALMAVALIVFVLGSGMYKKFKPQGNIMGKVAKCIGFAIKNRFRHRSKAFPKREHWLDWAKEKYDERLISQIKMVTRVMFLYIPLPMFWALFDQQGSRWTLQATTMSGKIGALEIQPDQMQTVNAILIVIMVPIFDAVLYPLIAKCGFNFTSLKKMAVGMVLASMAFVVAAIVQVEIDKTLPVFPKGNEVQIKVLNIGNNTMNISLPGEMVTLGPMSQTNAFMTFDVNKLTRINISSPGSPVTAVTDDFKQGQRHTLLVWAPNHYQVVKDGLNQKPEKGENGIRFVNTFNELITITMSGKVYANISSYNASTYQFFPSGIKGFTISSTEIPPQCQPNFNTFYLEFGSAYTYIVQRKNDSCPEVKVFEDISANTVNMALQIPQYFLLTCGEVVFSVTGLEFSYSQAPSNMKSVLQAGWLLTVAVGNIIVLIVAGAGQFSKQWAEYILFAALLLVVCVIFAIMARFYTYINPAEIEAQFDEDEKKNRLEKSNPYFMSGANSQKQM

[3] = tested on: HeLa cells; conditions: control cultures not overexpressing hpept1, 50 micromolar, pH 6.0, 45 minutes
[4] = molecular target: T3, human dipeptide transporter, hPept1 (Homo sapiens, UniProt P46059); conditions: human, pH 6
T3 sequence (P46059 1-708): T2 sequence (P46059 1-708)

[5] = tested on: HeLa cells; conditions: 1 mM prodrug, pH 6.0, 45 minutes
[6] = in vitro; conditions: human, plasma
[7] = in vitro; conditions: human, Caco-2, pH 7.4
[8] = physchem; conditions: buffer, pH 7.4
[9] = in vitro; conditions: human, Caco-2
[10] = Hydrolysis of gemcitabine prodrugs in phosphate buffer pH 7.4
[11] = molecular target: T2, HPEPT1; experiment: Inhibition of radiolabelled Gly-Sar uptake in DC5 cells overexpressing HPEPT1; format: cell-based; parameters: expressed in transfected cells; host or cells: HeLa cells overexpressing hPEPT1 (called 'HPEPT1 infected cells')
Description: Amino acid prodrugs are tested for their interaction with the dipeptide transporter, HPEPT1, using tissue culture cells that are engineered to overexpress HPEPT1. In this example, the cells that overexpress HPEPT1, termed DC5, are a human meduloblastoma cell line that is stably transfected with a eukaryotic expression vector encoding HPEPT1. […] DC5 cells are plated at a density of 12,000 cells/well in 96-well tissue culture plates and allowed to grow for 2 days. The cells are washed once with 200 microliters of uptake buffer and aspirated. The plates are cooled to 4° C. and 25 ul of uptake buffer containing 125 nanomoles Gly-Sar (at a specific activity of 1 microcurie/micromole) is added. The uptake buffer also contains the prodrugs to be tested at concentrations ranging from 10 micromolar to 20 millimolar. The assay is initiated by placing the plate in a shaking water bath at 37° C. and is terminated after 10 min by rapid washing with multiple changes of 4° C. phosphate buffered saline (PBS). The radioactive Gly-Sar peptide that is transported by the hpept1 is extracted from the cell layer with 200 ul of a one to one mixture of methanol and water and is counted in 4 ml of CytoScint ES™ scintillation cocktail (ICN). The data are plotted as % Gly-Sar uptake of control (no competitive substrate) versus the competitive substrate concentration. […] Typically, values that are below 10 mM indicate that the drug interacts with transporter.

[12] = physchem; conditions: buffer, pH 7.4; remark: listed apart in the source

Row | Compound | % of Control (VACV) [1] | Uptake (hPepT1) [2] | hPepT1/Control [2] | Uptake Control [3] | HeLa/hPEPT1 uptake [4] | hPepT1/Control [4] | HeLa control uptake [5] | half-life [6] | half-life [7] | half-life [8] | half-life [9] | half-life [10] | IC50 [11] | half-life [12] | IC50 ([11]; inhibition of Gly-Sar uptake, DC5 cells overexpressing HPEPT1, 10 min, 37° C., read-out: DC5 IC50)
1 | CC(C)[C@H](N)C(=O)OCCOCn1cnc2c(=O)[nH]c(N)nc21 [Valacyclovir] | 100.0% | 2.51 ± 0.28 nmole/mg/45 min | 4.25 | 0.59 ± 0.06 nmole/mg/45 min | 221.2 ± 8.1 | 19.0 | 11.6 ± 0.5 nmol/mg/45 min | 5.2 ± 0.41 h | 0.462 ± 0.01 h | 16.5 ± 0.24 h | 0.545 ± 0.0117 h | 17.1 ± 0.19 h | 423 µM |  | 
2 | CC(C)[C@H](N)C(=O)OCC(CO)OCn1cnc2c(=O)nc(N)[nH]c21 (some centres unmarked) [Valganciclovir] |  |  |  |  |  |  |  | 5.05 ± 0.3 h | 0.545 ± 0.0117 h |  |  |  |  | 16.5 ± 0.24 h | 5230 µM
